Each structure is given as a SMILES string. A value given as a limit tells only on which side of the number the result lay.

The target of this test is T1, human IKK-2 (rhIKK-2 homodimer) (Homo sapiens, UniProt O14920).
T1 construct: FLAG (DYKDDDDKD) (C); made in house; host or cells: insect cells (baculovirus, pFastBac)
T1 sequence (O14920 1-756): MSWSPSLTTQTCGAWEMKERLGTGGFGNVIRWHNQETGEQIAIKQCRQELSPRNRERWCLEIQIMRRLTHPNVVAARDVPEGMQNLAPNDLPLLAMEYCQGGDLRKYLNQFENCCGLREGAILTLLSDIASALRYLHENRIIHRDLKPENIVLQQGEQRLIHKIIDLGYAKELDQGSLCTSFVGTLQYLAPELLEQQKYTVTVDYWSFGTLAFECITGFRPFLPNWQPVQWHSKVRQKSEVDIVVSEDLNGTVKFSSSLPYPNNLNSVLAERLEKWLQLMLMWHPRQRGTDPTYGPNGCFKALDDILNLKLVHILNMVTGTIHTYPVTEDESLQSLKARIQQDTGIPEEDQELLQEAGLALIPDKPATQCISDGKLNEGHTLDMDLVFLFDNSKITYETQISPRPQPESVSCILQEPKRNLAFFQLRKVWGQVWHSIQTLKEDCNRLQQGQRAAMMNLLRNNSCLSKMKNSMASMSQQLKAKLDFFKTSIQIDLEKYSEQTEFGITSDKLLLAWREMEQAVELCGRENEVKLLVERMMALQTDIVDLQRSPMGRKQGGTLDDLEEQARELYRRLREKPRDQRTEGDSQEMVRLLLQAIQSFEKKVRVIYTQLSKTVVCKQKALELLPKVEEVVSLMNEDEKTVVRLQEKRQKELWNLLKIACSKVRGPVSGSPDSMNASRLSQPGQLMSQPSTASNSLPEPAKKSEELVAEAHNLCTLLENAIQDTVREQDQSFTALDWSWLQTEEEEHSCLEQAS
Description: IKK-2 Resin Enzyme Assay (Human IKK-2 Enzyme Assay). The conditions noted are these: human IKK-2, resin enzyme assay; read-out: IC50 (μM) hIKK-2. The format is biochemical. In short, it runs like this:
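C-terminally FLAG-tagged human IKK-2 homodimer, baculovirus-expressed in insect cells and anti-FLAG purified. Reaction mix: 5 μM biotinylated IκBα peptide (Ser32/Ser36 region), 1 μM ATP with [γ-33P]ATP, 2 mM MgCl2, 2 mM MnCl2, 10 mM NaF, 1 mM DTT, 25 mM HEPES pH 7.6. Incubated 30 min at 25 °C; IC50 derived.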

By IC50 is commonly meant the midpoint of a concentration-inhibition curve. Regarding `COc1ccccc1-c1cccc(-n2cc(NC(N)=O)c(C(N)=O)n2)c1` [Example 88, 4-[(aminocarbonyl)amino]-1-(2′-methoxy-1,1′-biphenyl-3-yl)-1H-pyrazole-3-carboxamide], the IC50 was 3.2 µM.

Turning to `NC(=O)Nc1cn(-c2cccc(-c3cccc4ccccc34)c2)nc1C(N)=O` [Example 360, 4-[(aminocarbonyl)amino]-1-[3-(1-naphthyl)phenyl]-1H-pyrazole-3-carboxamide], the IC50 is > 20 µM.

For the compound `NC(=O)Nc1cn(-c2cccc(-c3ccc4c(c3)OCO4)c2)nc1C(N)=O` [Example 62, 4-[(aminocarbonyl)amino]-1-[3-(1,3-benzodioxol-5-yl)phenyl]-1H-pyrazole-3-carboxamide], the IC50 was determined as 7.91 µM.

For the compound `NC(=O)Nc1cn(-c2cccc(-c3ccc(Cl)cc3)c2)nc1C(N)=O` [Example 348, 4-[(aminocarbonyl)amino]-1-(4′-chloro-1,1′-biphenyl-3-yl)-1H-pyrazole-3-carboxamide], the IC50 is > 20 µM.

As to `NC(=O)Nc1cn(-c2ccc(Sc3ccccc3O)cc2)nc1C(N)=O` [Example 208, 1-(1-(4-(2-hydroxyphenylthio)phenyl)-3-carbamoyl-1H-pyrazol-4-yl)urea], the IC50 was determined as 0.328 µM.

As to `NC(=O)Nc1cn(-c2cccc(-c3ccccc3CO)c2)nc1C(N)=O` [Example 87], the IC50 is 1.52 µM.

On to `CCc1cc(-c2cccc(O)c2)ccc1-n1cc(NC(N)=O)c(C(N)=O)n1` [Example 282, 4-[(aminocarbonyl)amino]-1-(3-ethyl-3′-hydroxy-1,1′-biphenyl-4-yl)-1H-pyrazole-3-carboxamide], for which the IC50 came out at 12.6 µM.

For the compound `CNC(=O)COc1ccc(F)cc1-c1ccc(-n2cc(NC(N)=O)c(C(N)=O)n2)cc1` [Example 256, 4-[(aminocarbonyl)amino]-1-{5′-fluoro-2′-[2-(methylamino)-2-oxoethoxy]-1,1′-biphenyl-4-yl}-1H-pyrazole-3-carboxamide], the IC50 is 1.07 µM.

Regarding `NC(=O)CCc1cccc(-c2ccc(-n3cc(NC(N)=O)c(C(N)=O)n3)cc2)c1` [Example 338, 4-[(aminocarbonyl)amino]-1-[3′-(3-amino-3-oxopropyl)-1,1′-biphenyl-4-yl]-1H-pyrazole-3-carboxamide], the IC50 turned out to be 0.62 µM.

On to `NC(=O)Nc1nn(-c2ccc(-c3ccc(Cl)c(Cl)c3)cc2)cc1C(N)=O` [Example 136], for which the IC50 is > 20 µM.

Regarding `NC(=O)Nc1cn(-c2ccc(Cl)cc2)nc1C(N)=O` [Example 214, 4-[(aminocarbonyl)amino]-1-(4-chlorophenyl)-1H-pyrazole-3-carboxamide], the IC50 was determined as 0.382 µM.

In the case of `NC(=O)Nc1cn(-c2ccc(-c3cccc(-n4cccn4)c3)cc2)nc1C(N)=O` [Example 130, 4-[(aminocarbonyl)amino]-1-[3′-(1H-pyrazol-1-yl)-1,1′-biphenyl-4-yl]-1H-pyrazole-3-carboxamide], the 50% inhibitory concentration (IC50) came out at 1.79 µM.

As to `NC(=O)c1nn(-c2cccc(Br)c2)cc1NC(N)=S` [Example 12, 4-[(aminocarbonothioyl)amino]-1-(3-bromophenyl)-1H-pyrazole-3-carboxamide], the IC50 was determined as 1.43 µM.

For the compound `NC(=O)Nc1nn(-c2ccc(-c3cccc(C(F)(F)F)c3)cc2)cc1C(N)=O` [Example 131], the IC50 is 3.15 µM.

In the case of `NC(=O)Nc1cn(-c2cccc(-c3ccccc3-c3ccccc3)c2)nc1C(N)=O` [Example 371, 4-[(aminocarbonyl)amino]-1-(1,1′:2′,1″-terphenyl-3-yl)-1H-pyrazole-3-carboxamide], the IC50 stood at 1.09 µM.

For the compound `CCCNC(=O)c1ccc(-c2cccc(-n3cc(NC(N)=O)c(C(N)=O)n3)c2)cc1` [Example 75, 4-[(aminocarbonyl)amino]-1-{4′-[(propylamino)carbonyl]-1,1′-biphenyl-3-yl}-1H-pyrazole-3-carboxamide], the concentration for half-maximal inhibition (IC50) turned out to be 0.48 µM.

Take `CC(C#N)Oc1cccc(-c2ccc(-n3cc(NC(N)=O)c(C(N)=O)n3)cc2)c1` (stereo not shown) [Example 169, 4-[(aminocarbonyl)amino]-1-[3′-(1-cyanoethoxy)-1,1′-biphenyl-4-yl]-1H-pyrazole-3-carboxamide]: the half-inhibitory concentration (IC50) was determined as 1.83 µM.

Consider `NC(=O)Nc1cn(-c2ccc(S(=O)(=O)c3cccc(F)c3)cc2)nc1C(N)=O` [Example 203, 1-(1-(4-(3-fluorophenylsulfonyl)phenyl)-3-carbamoyl-1H-pyrazol-4-yl)urea], for which the IC50 stood at 0.153 µM.

On to `CCOc1cc(-n2cc(NC(N)=O)c(C(N)=O)n2)ccc1-c1ccccc1OCC#N` [Example 236, 4-[(aminocarbonyl)amino]-1-[2′-(cyanomethoxy)-2-ethoxy-1,1′-biphenyl-4-yl]-1H-pyrazole-3-carboxamide], for which the IC50 stood at 3.05 µM.

Consider `NC(=O)Nc1cn(-c2ccc(-c3ccc(C(N)=O)cc3)cc2)nc1C(N)=O` [Example 149, 4-[(aminocarbonyl)amino]-1-[4′-(aminocarbonyl)-1,1′-biphenyl-4-yl]-1H-pyrazole-3-carboxamide], for which the IC50 amounted to 0.05 µM.

`NC(=O)Nc1cn(-c2ccc(-c3cccc(O)c3)c(F)c2)nc1C(N)=O` [Example 226, 4-[(aminocarbonyl)amino]-1-(2-fluoro-3′-hydroxy-1,1′-biphenyl-4-yl)-1H-pyrazole-3-carboxamide]: the IC50 came out at 1.06 µM.

As to `NC(=O)Nc1cn(-c2ccc(-c3cccc(Cl)c3Cl)cc2)nc1C(N)=O` [Example 133, 4-[(aminocarbonyl)amino]-1-(2′,3′-dichloro-1,1′-biphenyl-4-yl)-pyrazole-3-carboxamide], the IC50 came to 1.63 µM.

On to `CCOc1cccc(-c2cccc(-n3cc(NC(N)=O)c(C(N)=O)n3)c2)c1` [Example 354, 4-[(aminocarbonyl)amino]-1-(3′-ethoxy-1,1′-biphenyl-3-yl)-1H-pyrazole-3-carboxamide], for which the IC50 was > 20 µM.

With `NC(=O)Nc1cn(-c2ccc(-c3ccncc3)cc2)nc1C(N)=O` [Example 40, 4-[(aminocarbonyl)amino]-1-(4-pyridin-4-ylphenyl)-1H-pyrazole-3-carboxamide], the IC50 was found to be 0.351 µM.

As to `COC(=O)c1cccc(-n2cc(NC(N)=O)c(C(N)=O)n2)c1` [Example 185, methyl 3-{3-(aminocarbonyl)-4-[(aminocarbonyl)amino]-1H-pyrazol-1-yl}benzoate], the IC50 was 5.88 µM.

Consider `COc1ccc(CNC(=O)c2ccc(-c3ccc(-n4cc(NC(N)=O)c(C(N)=O)n4)cc3)cc2F)cc1` [Example 150, 4-[(aminocarbonyl)amino]-1-(3′-fluoro-4′-{[(4-methoxybenzyl)amino]carbonyl}-1,1′-biphenyl-4-yl)-1H-pyrazole-3-carboxamide], for which the IC50 worked out at 0.63 µM.

`CN(C)c1ccc(-c2cccc(-n3cc(NC(N)=O)c(C(N)=O)n3)c2)cc1` [Example 61]: the IC50 came out at 6.21 µM.

On to `Cc1cc(O)ccc1-c1cccc(-n2cc(NC(N)=O)c(C(N)=O)n2)c1` [Example 89, 4-[(aminocarbonyl)amino]-1-(4′-hydroxy-2′-methyl-1,1′-biphenyl-3-yl)-1H-pyrazole-3-carboxamide], for which the IC50 was 0.7 µM.

Turning to `CCOC(=O)c1ccc(-c2ccc(-n3cc(NC(N)=O)c(C(N)=O)n3)cc2)cc1` [Example 147, ethyl 4′-{3-(aminocarbonyl)-4-[(aminocarbonyl)amino]-1H-pyrazol-1-yl}-1,1′-biphenyl-4-carboxylate], the IC50 was found to be 6.01 µM.

Consider `NC(=O)Nc1cn(-c2cccc(-c3cccc(C(F)(F)F)c3)c2)nc1C(N)=O` [Example 367, 4-[(aminocarbonyl)amino]-1-[3′-(trifluoromethyl)-1,1′-biphenyl-3-yl]-1H-pyrazole-3-carboxamide], for which the IC50 is > 20 µM.

`CNC(=O)c1ccc(-c2ccc(-n3cc(NC(N)=O)c(C(N)=O)n3)cc2)cc1` [Example 145, 4-[(aminocarbonyl)amino]-1-{4′-[(methylamino)carbonyl]-1,1′-biphenyl-4-yl}-1H-pyrazole-3-carboxamide]: the IC50 turned out to be 0.24 µM.

Turning to `COc1cccc(CNC(=O)c2ccc(-c3ccc(-n4cc(NC(N)=O)c(C(N)=O)n4)cc3)cc2F)c1` [Example 153, 4-[(aminocarbonyl)amino]-1-(3′-fluoro-4′-{[(3-methoxybenzyl)amino]carbonyl}-1,1′-biphenyl-4-yl)-1H-pyrazole-3-carboxamide], the IC50 came out at 0.32 µM.

On to `NC(=O)Nc1cn(-c2cccc(-c3cccc4ncccc34)c2)nc1C(N)=O` [Example 60, 4-[(aminocarbonyl)amino]-1-(3-quinolin-5-ylphenyl)-1H-pyrazole-3-carboxamide], for which the half-inhibitory concentration (IC50) came out at 3.75 µM.

As for `NC(=O)Nc1cn(-c2ccc(-c3cccc(OCc4ccccn4)c3)cc2)nc1C(N)=O` [Example 168, 4-[(aminocarbonyl)amino]-1-[3′-(pyridin-2-ylmethoxy)-1,1′-biphenyl-4-yl]-1H-pyrazole-3-carboxamide], the IC50 amounted to 1.99 µM.
